Test results reported in US20180064730A1 (priority 2014, published 2018).
Values joined by “and” are separate entries in the source; they are usually repeats but may differ in a detail not shown here. Equal values may be shown once. “Also recorded” adds a separate entry of the source. Read-outs that look alike come from different tables or passages of the source.

Legend:
[1] = test system: IL-8 secretion from CF lung epithelial cells; experiment: Suppression of constitutive IL-8 secretion from CF lung epithelial cells; format: cell-based, human; details: for IC50: constitutive IL-8 hypersecretion, read-out: K50 (concentration causing a 50% reduction of IL-8 secretion)
Text: Analysis of cardiac glycoside activities identifies a structure-activity-relationship for IL-8 suppression. […] Using all the data we were also able to derive a structure-activity relationship (see Table 1). Briefly, suppression of IL-8 secretion from CF lung epithelial cells is optimally promoted by the presence of glycosyl moieties at the 3-position of the cholesterol nucleus, and by the absence of oxygen-containing substitutions at or near the 12-position on the C ring. Activity declines when glycosyl moieties are absent from the 3-position, and when oxygen-containing substitutions are made at or near the 12-position on the C ring. […] We therefore give the equatorial 12-position and its neighbors crucial negative pharmacophoric importance, and glycosidic substitution at the 3-position positive pharmacophoric importance for the control of IL-8 secretion from CF lung epithelial cells.
(§1) Previously published data had implicated a dysfunctional TNFα/NFκB signaling pathway as responsible for the pro-inflammatory phenotype of the CF lung. […] (46 Srivastava et al, 2004) (47 Yang Q, et al, 2005).

[2] = test system: TNFα/NFκB signaling pathway; experiment: Reverse Phase Protein Microarray of IB3-1 and CFTR-repaired IB3-1/S9 cells; format: cell-based, human; details: ID90 concentrations; IB3-1 and IB3-1/S9 cells
Text: as §1

[3] = biological target: T1, TNF-alpha-activated TNFR and TRADD (Homo sapiens, UniProt P19438+Q15628); experiment: Interaction between TNF-alpha-activated TNFR and TRADD
T1 sequence (Q15628 1-312): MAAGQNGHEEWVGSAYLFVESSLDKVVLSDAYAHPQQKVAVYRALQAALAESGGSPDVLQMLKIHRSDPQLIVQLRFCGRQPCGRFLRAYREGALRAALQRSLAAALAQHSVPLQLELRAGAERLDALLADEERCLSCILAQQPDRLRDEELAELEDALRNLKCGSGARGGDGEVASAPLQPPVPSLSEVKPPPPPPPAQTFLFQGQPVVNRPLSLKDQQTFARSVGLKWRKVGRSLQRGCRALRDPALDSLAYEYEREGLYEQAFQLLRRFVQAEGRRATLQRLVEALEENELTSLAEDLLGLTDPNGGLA
T1 sequence (P19438 22-455 limits assumed): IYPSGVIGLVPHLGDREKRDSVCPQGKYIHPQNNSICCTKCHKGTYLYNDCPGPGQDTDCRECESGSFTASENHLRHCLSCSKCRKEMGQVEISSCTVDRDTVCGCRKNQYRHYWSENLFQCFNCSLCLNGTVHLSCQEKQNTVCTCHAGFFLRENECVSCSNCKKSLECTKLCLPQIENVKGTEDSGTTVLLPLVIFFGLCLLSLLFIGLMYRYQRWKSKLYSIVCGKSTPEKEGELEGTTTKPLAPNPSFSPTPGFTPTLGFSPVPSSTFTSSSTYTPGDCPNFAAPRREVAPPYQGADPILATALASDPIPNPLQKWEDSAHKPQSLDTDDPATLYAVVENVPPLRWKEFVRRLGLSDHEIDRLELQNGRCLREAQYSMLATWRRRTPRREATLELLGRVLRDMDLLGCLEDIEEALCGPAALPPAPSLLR
Text: Increased expression of TRADD is associated with a greater rate of decline in CF lung function. […] Trend-lines are based on data for female CF patients, who make up the majority of the patients.

CF patients = experiment: Phase II clinical trial of digitoxin in cystic fibrosis: adverse events; details: for Pulm, upper_resp adverse events (cases) / Dermatolog adverse events / Gastrointestinal adverse events / General adverse events / Musculoskel adverse events / Neurological adverse events / Reproductive adverse events / Total (all) adverse events (cases): 28 days, n = 8; for Incidence Rate, all adverse events / Incidence Rate, pulmonary adverse events: person-time 224
Description: Experiment# 1.1. Study design and methods: The study was a randomized, double-blind, placebo controlled, repeat dosing escalation trial. Adults 18-45 years of age with a diagnosis of CF and meet Inclusion/exclusion criteria were selected for the trial. The 24 evaluable patients were studied at a single site, and randomized with respect to drug treatment and placebo at a ratio of 2:1, respectively. Screening included a 24 hour Holter monitor to screen for possible for baseline dysrhythmias. […] Dosing was once a day for 28 days with 8 patients in each group.
The inclusion criteria included (i) male or female, 18 to 45 years of age; (ii) confirmed diagnosis of CF by sweat test (a sweat chloride concentration≧60 meq/L), and a genotype consistent with a CF diagnosis; (iii) FEV 1, % PRED≧40%; (iv) clinically stable with no evidence of acute upper respiratory or lower respiratory tract infection or current pulmonary exacerbation; (v) ability to perform spirometry; (vi) weight≧45 kg at screening and at visit #1 (dosing).
During this period, subjects were not taking macrolide antibiotics.

[4] = test system: Wuhan influenza virus induced lung inflammation; experiment: Rodent influenza lung inflammation model, lung cytokines/chemokines by ELISA; format: in vivo, cotton rat
Description: Applicant previously conducted a study on a mammal, a rodent with induced lung inflammation from Wuhan influenza virus.
Lung tissue was harvested on day 7, and assayed in terms of pg/ml for iFN-Gamma, GRO/KC, MTP-2, TNF-ALPHA, IL-1B, MCP-1. TGF-Beta, and GM-CSF. Rodents lack IL-8, and instead have GRO/KC and MIP-2.
Methods: The assays for different cytokines and chemokines were performed with commercial micro-sandwich ELISA assays. (Searchlight System, Pierce-Thermo). The results shown are for 22 patients, including 14 females and 8 males.

[5] = test system: TNFalpha-activated NFκB activation and IL-8 expression; details: CF airway epithelial cells; cited from earlier work
[6] = cited from earlier work
[7] = test system: control patients / heart failure patients; details: cited from earlier work
CF children = details: CF vs control children; cited from earlier work
[8] = 3, 10 and 30 mg/kg daily, lung harvested day 7

Compound `CC(=O)O[C@H]1CC[C@]2(C=O)[C@H]3CC[C@]4(C)[C@@H](C5=CC(=O)OC5)CC[C@]4(O)[C@@H]3CC[C@]2(O)C1` [Acetyl Strophanthidin] has an IC50 [1] of 0.117 µM.

`C[C@]12CC[C@H](O)C[C@H]1CC[C@@H]1[C@@H]2CC[C@]2(C)[C@@H](C3=CC(=O)OC3)CC[C@]12O` [Digitoxigenin] showed an IC50 ([1]; Homo sapiens, Epithelial cell) of 0.0736 µM.

In the case of `C[C@H]1O[C@@H](O[C@H]2[C@@H](O)C[C@H](O[C@H]3[C@@H](O)C[C@H](O[C@H]4CC[C@@]5(C)[C@H](CC[C@@H]6[C@@H]5CC[C@]5(C)[C@@H](C7=CC(=O)OC7)CC[C@]65O)C4)O[C@@H]3C)O[C@@H]2C)C[C@H](O)[C@@H]1O` [Digitoxin], the IC50 ([1]; Homo sapiens, Epithelial cell) is reported as about 0.0009 µM, the “CF-related constitutive phosphorylation of IKBα” value [2] is reported as “significantly blocked” and the “CF-related constitutive phosphorylation of NFκB,p65” value [2] is reported as “significantly blocked”. The “phosphorylation of IKKα” value [2] was “somewhat suppressed”, the “interaction between TNF-alpha-activated TNFR and TRADD” value [3] was “blocks” and the “Pulm, upper_resp adverse events (cases)” value (CF patients; 0.05 mg by mouth daily) was 9. The Dermatolog adverse events (CF patients; 0.05 mg daily) was 0, the Gastrointestinal adverse events (CF patients; 0.05 mg daily) was 5 and the General adverse events (CF patients; 0.05 mg daily) was 3. The Musculoskel adverse events (CF patients; 0.05 mg daily) was 2, the Neurological adverse events (CF patients; 0.05 mg daily) was 8 and the Reproductive adverse events (CF patients; 0.05 mg daily) was 1. For the same compound, the “Total (all) adverse events (cases)” value (CF patients; 0.05 mg daily) was 29, the “Incidence Rate, all adverse events” value (CF patients; 0.05 mg daily) was 0.1295 and the “Incidence Rate, pulmonary adverse events” value (CF patients; 0.05 mg daily) was 0.04018. For the same compound, the “Inc. rate diff., all adverse events” value (CF patients; 0.05 mg vs placebo) was −0.008929, the “Inc. rate diff., pulmonary adverse events” value (CF patients; 0.05 mg vs placebo) was −0.008929 and the “Prev. frac. pop, all adverse events” value (CF patients; 0.05 mg vs placebo) was 0.03571. The “Prev. frac. pop, pulmonary adverse events” value (CF patients; 0.05 mg vs placebo) was 0.09091, the “prev. frac. ex., all adverse events” value (CF patients; 0.05 mg vs placebo) was 0.06897 and the “prev. frac. ex., pulmonary adverse events” value (CF patients; 0.05 mg vs placebo) was 0.1818. For the same compound, the “reduction in pulmonary, upper respiratory adverse events, significance” value (CF patients; 0.05 mg/day vs placebo) was “not statistically significant”, the “Pulm, upper_resp adverse events (cases)” value (CF patients; 0.10 mg by mouth daily) was 2 and the Dermatolog adverse events (CF patients; 0.10 mg daily) was 1. For the same compound, the Gastrointestinal adverse events (CF patients; 0.10 mg daily) was 5, the General adverse events (CF patients; 0.10 mg daily) was 3 and the Musculoskel adverse events (CF patients; 0.10 mg daily) was 1. The Neurological adverse events (CF patients; 0.10 mg daily) was 2, the Reproductive adverse events (CF patients; 0.10 mg daily) was 0 and the “Total (all) adverse events (cases)” value (CF patients; 0.10 mg daily) was 15. The “Incidence Rate, all adverse events” value (CF patients; 0.10 mg daily) was 0.06696-3 and 0.06696, the “Incidence Rate, pulmonary adverse events” value (CF patients; 0.10 mg daily) was 0.008929 and the “Inc. rate diff., all adverse events” value (CF patients; 0.10 mg vs 0.05 mg) was −0.0625. The “Inc. rate diff., pulmonary adverse events” value (CF patients; 0.10 mg vs 0.05 mg) was −0.03125, the “Prev. frac. pop, all adverse events” value (CF patients; 0.10 mg vs 0.05 mg) was 0.2414 and the “Prev. frac. pop, pulmonary adverse events” value (CF patients; 0.10 mg vs 0.05 mg) was 0.3889. For the same compound, the “prev. frac. ex., all adverse events” value (CF patients; 0.10 mg vs 0.05 mg) was 0.4828, the “prev. frac. ex., pulmonary adverse events” value (CF patients; 0.10 mg vs 0.05 mg) was 0.7778 and the “Inc. rate diff., all adverse events” value (CF patients; 0.10 mg vs placebo) was −0.05357. For the same compound, the “Inc. rate diff., pulmonary adverse events” value (CF patients; 0.10 mg vs placebo) was −0.04018, the “Prev. frac. pop, all adverse events” value (CF patients; 0.10 mg vs placebo) was 0.2222 and the “Prev. frac. pop, pulmonary adverse events” value (CF patients; 0.10 mg vs placebo) was 0.4091. For the same compound, the “prev. frac. ex., all adverse events” value (CF patients; 0.10 mg vs placebo) was 0.4444, the “prev. frac. ex., pulmonary adverse events” value (CF patients; 0.10 mg vs placebo) was 0.8182 and the “reduction in pulmonary, upper respiratory adverse events, significance” value (CF patients; 0.10 mg/day (high dose) vs 0.05 mg/day (low dose)) was “statistically significant”. The “reduction in pulmonary, upper respiratory adverse events, significance” value (CF patients; 0.10 mg/day vs placebo) was “statistically significant”, the serious adverse events (CF patients; clinical trial in CF patients) was “no serious adverse events” and the “GRO/KC in lung tissue” value [4, 8] was “significant reductions; also recorded: suppressed”. For the same compound, the “IFN-gamma in lung tissue” value [4, 8] was “significant reductions”, the “IL-1B in lung tissue” value [4, 8] was “No significant changes” and the “MCP-1 in lung tissue” value [4, 8] was “significant reductions”. The “MIP-2 in lung tissue” value [4, 8] was “significant reductions; also recorded: suppressed”, the “TGF-B in lung tissue” value [4, 8] was “No significant changes” and the “TNF-alpha in lung tissue” value [4, 8] was “significant reductions; also recorded: reduced”. The “lung inflammation in rodent model” value ([4]; experimental model of lung inflammation) was “profound, dose-dependent reduction”, the “TNFalpha-activated NFκB activation and IL-8 expression” value [5] was “blocks” and the bioavailable ([6]; given by mouth) was 100%. For the same compound, the “bound to blood and tissue proteins” value ([6]; human, in vivo) was 90%, the “incidence of adverse events vs digoxin” value ([7]; U.S. 1995-1998 retrospective, heart failure patients) was “approximately three-fold lower incidence” and the side effects ([7]; control patients, ca. 30 nM in the circulation) was “only modest, or in many cases, undetectable side effects”.

With `C[C@]12CC[C@H](O)C[C@H]1CC[C@@H]1[C@@H]2C[C@@H](O)[C@]2(C)[C@@H](C3=CC(=O)OC3)CC[C@]12O` [Digoxigenin] the IC50 ([1]; Homo sapiens, Epithelial cell) was 0.0341 µM.

For `C[C@H]1O[C@@H](O[C@H]2[C@@H](O)C[C@H](O[C@H]3[C@@H](O)C[C@H](O[C@H]4CC[C@@]5(C)[C@H](CC[C@@H]6[C@@H]5C[C@@H](O)[C@]5(C)[C@@H](C7=CC(=O)OC7)CC[C@]65O)C4)O[C@@H]3C)O[C@@H]2C)C[C@H](O)[C@@H]1O` [Digoxin], the IC50 ([1]; Homo sapiens, Epithelial cell) is listed as 0.027 µM, the IC50 [1] is listed as 0.0271 µM and the “exercise capacity or exercising cardiac function” value (CF children) is listed as “no difference”.

Work on `CO[C@H]1C[C@H](O[C@H]2CC[C@@]3(C)[C@H](CC[C@@H]4[C@@H]3CC[C@]3(C)[C@@H](C5=CC(=O)OC5)[C@@H](OC(C)=O)C[C@]43O)C2)O[C@@H](C)[C@@H]1O` [Oleandrin] yielded an IC50 ([1]; Homo sapiens, Epithelial cell) of 0.002 µM.

With `C[C@@H]1O[C@@H](O[C@H]2C[C@@H](O)[C@]3(CO)[C@H]4[C@H](O)C[C@]5(C)[C@@H](C6=CC(=O)OC6)CC[C@]5(O)[C@@H]4CC[C@]3(O)C2)[C@H](O)[C@H](O)[C@H]1O` [Ouabain] the IC50 ([1]; Homo sapiens, Epithelial cell) was 0.0079 µM.

In the case of Digitoxigenin 3,12-diAc, the “activity for suppression of IL-8 secretion” value [1] is reported as “Activity is altogether lost”.
